Results reported in article PMC8343220, “The selectivity of α‐adrenoceptor agonists for the human α1A, α1B, and α1D‐adrenoceptors” (Pharmacology Research & Perspectives, 2021).
Where two headings read alike, the source gives them in different places.

What was measured:
human α1A‐adrenoceptor [1] = target: T1, human α1A‐adrenoceptor (Homo sapiens, UniProt P35348); experiment: Intracellular free calcium mobilization, CHO‐α1A cells; type: cell-based
T1 construct: expressed in transfected cells; host or cells: CHO-K1
T1 sequence (P35348 1-466): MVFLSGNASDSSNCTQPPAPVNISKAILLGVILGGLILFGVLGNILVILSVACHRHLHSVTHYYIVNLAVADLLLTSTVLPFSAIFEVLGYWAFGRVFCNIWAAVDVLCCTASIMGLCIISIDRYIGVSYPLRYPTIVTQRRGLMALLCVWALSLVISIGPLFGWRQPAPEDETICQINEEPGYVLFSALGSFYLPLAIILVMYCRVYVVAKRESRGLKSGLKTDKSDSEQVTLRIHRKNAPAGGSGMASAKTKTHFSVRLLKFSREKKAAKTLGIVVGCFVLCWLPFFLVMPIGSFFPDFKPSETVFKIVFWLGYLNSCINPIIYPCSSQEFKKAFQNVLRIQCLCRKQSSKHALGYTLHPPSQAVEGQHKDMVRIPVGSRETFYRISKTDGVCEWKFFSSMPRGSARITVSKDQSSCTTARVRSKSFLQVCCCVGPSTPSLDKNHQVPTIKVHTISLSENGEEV

human α1A‐adrenoceptor [2] = target: T1, human α1A‐adrenoceptor; experiment: ERK1/2‐phosphorylation (Surefire Alphascreen), CHO‐α1A cells; type: cell-based
human α1A‐adrenoceptor [3] = target: T1, human α1A‐adrenoceptor; experiment: ^3H‐cAMP accumulation, CHO‐α1A cells; type: cell-based; details: CHO‐α1A cells; % of 10 µM forskolin response
human α1A‐adrenoceptor [4] = target: T1, human α1A‐adrenoceptor; experiment: ^3H‐cAMP accumulation in the presence of 10 μM forskolin, CHO‐α1A cells; type: cell-based; details: CHO‐α1A cells; fold increase of the forskolin response
human α1B‐adrenoceptor [5] = target: T2, human α1B‐adrenoceptor (Homo sapiens, UniProt P35368); experiment: Intracellular free calcium mobilization, CHO‐α1B cells; type: cell-based; details: CHO‐α1B cells
T2 construct: expressed in transfected cells; host or cells: CHO-K1
T2 sequence (P35368 1-520): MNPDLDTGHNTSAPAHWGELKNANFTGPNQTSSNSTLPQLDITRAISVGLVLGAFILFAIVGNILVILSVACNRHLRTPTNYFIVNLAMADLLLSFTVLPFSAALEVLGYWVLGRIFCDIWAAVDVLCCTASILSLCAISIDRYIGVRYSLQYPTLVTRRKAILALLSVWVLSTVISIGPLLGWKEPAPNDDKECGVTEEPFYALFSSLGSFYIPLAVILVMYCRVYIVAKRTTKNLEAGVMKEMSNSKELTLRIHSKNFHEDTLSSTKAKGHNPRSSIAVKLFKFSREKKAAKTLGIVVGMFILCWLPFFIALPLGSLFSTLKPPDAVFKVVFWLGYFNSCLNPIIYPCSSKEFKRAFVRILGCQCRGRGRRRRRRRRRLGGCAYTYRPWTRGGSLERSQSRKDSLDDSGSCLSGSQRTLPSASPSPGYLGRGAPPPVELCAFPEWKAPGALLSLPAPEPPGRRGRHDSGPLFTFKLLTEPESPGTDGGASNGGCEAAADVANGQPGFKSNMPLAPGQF

[6] = target: T3, human α1D‐adrenoceptor (full length) (Homo sapiens, UniProt P25100); experiment: Intracellular free calcium mobilization, CHO‐α1D cells; type: cell-based; details: CHO‐α1D cells; for Intracellular calcium release % Ionomycin at 100 µM: response at 100 µM ligand (no EC50 given)
T3 construct: human α1D‐adrenoceptor (full length) were used; expressed in transfected cells; host or cells: CHO-K1
T3 sequence (P25100 1-572): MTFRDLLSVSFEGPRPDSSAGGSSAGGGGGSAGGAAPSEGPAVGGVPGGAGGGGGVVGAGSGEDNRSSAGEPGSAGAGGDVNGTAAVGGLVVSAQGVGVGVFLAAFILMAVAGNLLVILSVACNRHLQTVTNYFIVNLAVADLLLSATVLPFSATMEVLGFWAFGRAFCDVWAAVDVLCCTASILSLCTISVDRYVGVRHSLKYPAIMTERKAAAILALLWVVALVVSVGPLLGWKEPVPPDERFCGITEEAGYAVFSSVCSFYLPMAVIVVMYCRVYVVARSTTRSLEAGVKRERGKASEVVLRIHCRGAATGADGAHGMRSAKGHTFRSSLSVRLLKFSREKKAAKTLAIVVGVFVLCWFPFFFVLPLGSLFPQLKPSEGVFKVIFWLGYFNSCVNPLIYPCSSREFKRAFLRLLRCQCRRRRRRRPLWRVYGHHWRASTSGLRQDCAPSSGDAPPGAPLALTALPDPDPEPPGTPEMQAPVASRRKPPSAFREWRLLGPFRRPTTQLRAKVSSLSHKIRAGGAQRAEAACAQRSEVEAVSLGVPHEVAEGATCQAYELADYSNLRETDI

human α1B‐adrenoceptor [7] = target: T2, human α1B‐adrenoceptor; experiment: ERK1/2‐phosphorylation (Surefire Alphascreen), CHO‐α1B cells; type: cell-based; details: for ERK1/2‐phosphorylation % PDBu: CHO‐α1B cells, maximal response as % PDBu response, for bi‐phasic responses the initial stimulatory part
[8] = target: T3, human α1D‐adrenoceptor (full length); experiment: ERK1/2‐phosphorylation (Surefire Alphascreen), CHO‐α1D cells; type: cell-based; details: for ERK1/2‐phosphorylation % PDBu: maximal response as % of PDBu
[9] = test system: parental CHO cell line without any transfected receptors; experiment: ERK1/2‐phosphorylation, parent CHO cells without transfected receptors; type: cell-based, Chinese hamster; details: for ERK1/2-phosphorylation % PDBu: maximal response as % of PDBu (10μM) response
[10] = test system: parental CHO cell line without any transfected receptors; experiment: Forskolin‐stimulated cAMP accumulation, parent CHO cells without transfected receptors; type: cell-based, Chinese hamster; details: CHO cells without transfected receptors; in presence of forskolin
human α1B‐adrenoceptor [11] = target: T2, human α1B‐adrenoceptor; experiment: ^3H‐prazosin whole‐cell radioligand binding, CHO‐α1B cells; details: CHO‐α1B cells
[12] = target: T3, human α1D‐adrenoceptor (full length); experiment: ^3H‐prazosin whole‐cell radioligand binding, CHO‐α1D cells
human α1A‐adrenoceptor [13] = target: T1, human α1A‐adrenoceptor; experiment: ^3H‐prazosin whole‐cell radioligand binding, CHO‐α1A cells
[14] = CHO cells without transfected receptors, mean ± s.e.m.

With Bromocryptine the “Intracellular calcium release % ionomycin” value (human α1A‐adrenoceptor [1]) was 20.0 ± 3.0%, the “Log efficacy ratio KD /EC50” value (human α1A‐adrenoceptor [1]) was −1.42 and the “ERK1/2‐phosphorylation % PDBu” value (human α1A‐adrenoceptor [2]) was 61.2 ± 10.3%. The “cAMP accumulation % forskolin” value (human α1A‐adrenoceptor [3]) was “No response” and the “cAMP accumulation (in presence of forskolin) Fold increase” value (human α1A‐adrenoceptor [4]) was “No response”.
With `CC(C)NCC(O)c1ccc(O)c(O)c1` (centres unmarked) [Isoprenaline] the “Intracellular calcium release % ionomycin” value (human α1B‐adrenoceptor [5]; maximal response as % of 10 µM ionomycin response) was 53.9 ± 3.3%, the “Intracellular calcium release % Ionomycin at 100 µM” value [6] was 3.6 ± 1.2% and the “ERK1/2‐phosphorylation % PDBu” value (human α1B‐adrenoceptor [7]) was 77.8 ± 8.5%. The “ERK1/2‐phosphorylation % PDBu” value ([8]; CHO‐α1D cells) was 8.5 ± 1.7%, the Emax at 100 µM ([9]; Cricetulus griseus, CHO, read-out: ERK1/2-phosphorylation % PDBu at 100μM) was 5.1 ± 4.6% and the “cAMP accumulation % forskolin” value (human α1A‐adrenoceptor [3]) was 16.2 ± 3.0%. The “cAMP accumulation (in presence of forskolin) Log EC50” value [10] was “No response”.
`Nc1cc(Cl)c(N=C2NCCN2)c(Cl)c1` [Para-amino-clonidine] was tested, and the “ERK1/2-phosphorylation % PDBu” value [9, 14] was “No response” and the “cAMP accumulation (in presence of forskolin) Log EC50” value [10] was “No response”.
Compound `c1ccc2c(c1)CCCC2C1=NCCN1` (centres unmarked) [Tetrahydrozoline] has a Kd (human α1B‐adrenoceptor [11]; Log KD α1B, ^3H‐prazosin whole cell binding, given as log KD (negative), mean ± SEM) of 6.03 µM, a Kd ([12]; 3H‐prazosin binding Log KD, CHO‐α1D cells, whole‐cell binding (from Table 1), log values given negative) of 4.57 µM and a Kd ([12]; Log KD α1D, ^3H‐prazosin whole cell binding, CHO‐α1D cells, given as log KD (negative), mean ± SEM, 'early plateau' = specific binding not fully inhibited) of 4.57 µM. The “Intracellular calcium release % Ionomycin at 100 µM” value [6] was 2.3 ± 1.1%, the “ERK1/2‐phosphorylation Log EC50” value ([8]; CHO‐α1D cells, log values given negative) was “No response” and the “ERK1/2‐phosphorylation % PDBu” value ([8]; CHO‐α1D cells) was “No response”. The “ERK1/2-phosphorylation % PDBu” value [9, 14] was “No response”, the “ERK1/2-phosphorylation Log EC50” value [9, 14] was “No response” and the “cAMP accumulation (in presence of forskolin) Log EC50” value [10] was “No response”.
With `C=CCN1CCc2nc(N)sc2CC1` [BHT920] the “Affinity selectivity ratio α1A vs α1B” value (human α1A‐adrenoceptor [13]) was 9.3 fold, the “Affinity selectivity ratio α1A vs α1D” value (human α1A‐adrenoceptor [13]) was 1.6 fold and the “Log KD α1A, ^3H‐prazosin whole cell binding” value (human α1A‐adrenoceptor [13]) was −4.70 ± 0.04. For the same compound, the “Log KD, ^3H‐prazosin binding” value (human α1B‐adrenoceptor [11]; whole‐cell binding (from Table 1), given as log KD (negative numbers)) was −3.73, the “Log KD α1B, ^3H‐prazosin whole cell binding” value (human α1B‐adrenoceptor [11]; given as log KD (negative), mean ± SEM) was −3.73 ± 0.04 and the “Affinity selectivity ratio α1B vs α1D” value [12] was 5.8 fold. For the same compound, the “3H‐prazosin binding Log KD” value ([12]; CHO‐α1D cells, whole‐cell binding (from Table 1), log values given negative) was −4.49, the “Log KD α1D, ^3H‐prazosin whole cell binding” value ([12]; CHO‐α1D cells, given as log KD (negative), mean ± SEM, 'early plateau' = specific binding not fully inhibited) was −4.49 ± 0.07 and the “Intracellular calcium release % ionomycin” value (human α1A‐adrenoceptor [1]) was 39.7 ± 3.3%. The “Intracellular calcium release Log EC50” value (human α1A‐adrenoceptor [1]) was −5.68 ± 0.09, the “Log efficacy ratio KD /EC50” value (human α1A‐adrenoceptor [1]) was 0.98 and the “Intracellular calcium release % Ionomycin at 100 µM” value (human α1B‐adrenoceptor [5]; response at 100 µM ligand (no EC50 given), % of ionomycin response) was 16.3 ± 4.5%. The “Intracellular calcium release Log EC50” value ([6]; log values given negative) was “No response”, the “Intracellular calcium release % ionomycin” value ([6]; maximal response as % of 10 µM ionomycin) was “No response” and the “ERK1/2‐phosphorylation % PDBu” value (human α1A‐adrenoceptor [2]) was 61.4 ± 5.5%. The “ERK1/2‐phosphorylation Log EC50” value (human α1A‐adrenoceptor [2]) was −5.14 ± 0.05, the “ERK1/2‐phosphorylation Log EC50” value (human α1B‐adrenoceptor [7]) was −5.31 ± 0.04 and the “ERK1/2‐phosphorylation % PDBu” value (human α1B‐adrenoceptor [7]) was 12.2 ± 3.6%. For the same compound, the “ERK1/2‐phosphorylation Log EC50” value [8] was “No response”, the “ERK1/2‐phosphorylation % PDBu” value ([8]; CHO‐α1D cells) was “No response” and the “ERK1/2-phosphorylation % PDBu at 100μM” value ([9]; CHO cells without transfected receptors, response at 100μM only, EC50 not obtainable, % of PDBu (10μM)) was 3.8 ± 1.8%.
